Among the data in patent US9433217B2, “Methods and compositions for introduction of exogenous dsRNA into plant cells” (Syngenta Participations AG, priority 2011, dated 2016) are phenotype values, retold here.

Assay type in all cases: in vivo
For data set [1], the system named is maize glutamine synthetase. In words: Silencing of maize glutamine synthetase, qPCR of leaf samples and phenotype. As to conditions: dsRNA treated maize plants, 2-3 weeks after treatment. The procedure: The Zma-GS dsRNA molecule (SEQ ID NO 7:SEQ ID NO 8) used in this embodiment is a double stranded RNA version of SEQ ID NO 2. Methods for formulation of dsRNA and control solutions, plant growth conditions, and application of RNAi formulation were as described in the above example, with the exception that another control formulation was added with only Brassinosteroid at 0.1 micromolar.
Results were evaluated from leaf samples taken 2-3 weeks after treatment. Four plants were examined from each treatment group. […] Since glutamine synthetase is a natively expressed gene, qPCR analysis was performed to calculate silencing efficiency. qPCR was performed using the Applied Biosystems 7900HT Fast Real-Time PCR System. Silencing efficiency was calculated according to the publication Analysis of Relative Gene Expression Data Using Real-Time Quantitative PCR and the 2^−ΔΔCt Method. Methods (2001) 25:402-408.
A general note: In qPCR the cycle at which signal appears reflects the starting amount.

Another data set concerns NtPDS transcript. Kind of data set: Silencing of NtPDS transcript in tobacco, qPCR and phenotype. Conditions: leaves of dsRNA treated tobacco plants. As to the method: The tobacco gene encoding phytoene desaturase was evaluated for silencing using dsRNA constructs in combination with BR. […] The NtPDS dsRNA molecule (SEQ ID NO 10:SEQ ID NO 11) used in this embodiment is a double stranded RNA version of SEQ ID NO 4.
Similar to Example 3, once germinated and grown for 3-4 weeks, three tobacco plants were chosen for treatment for either the dsRNA or the control formulation. Here, the control formulation contained BR and water alone. […] As in Examples 2 and 3, the silencing efficiencies were calculated and are shown in the table below, where dsPDS is dsRNA from NtPDS.

For a further data set, the system named is NtFtsH transcript. Kind of data set: Silencing of NtFtsH transcript in tobacco, qPCR and phenotype. As to conditions: leaves of dsRNA treated tobacco plants. As to the method: The tobacco gene encoding Filamentation temperature-sensitive H (NtFtsH) protease was evaluated for silencing using dsRNA constructs in combination with BR. […] The NtFtsH protease dsRNA molecule (SEQ ID NO 9:SEQ ID NO 10) used in this embodiment is a double stranded version of SEQ ID NO. 3.
Once germinated, tobacco plants were transplanted to new soil and grown for an additional 3-4 weeks. Three tobacco plants were chosen for treatment for either the dsRNA or the control formulation. The treatments were applied using methods similar to those described in Example 2. Here, the control formulation contained ZsGreen dsRNA. […] As in Example 2, the silencing efficiencies were calculated and are shown in the table below, where dsNtFtsH is dsRNA from NtFtsH protease and dsZsGreen is the dsRNA of ZsGreen: […]

On to “dsGS: Zma-GS dsRNA (SEQ ID NO 7:SEQ ID NO 8), double stranded RNA version of SEQ ID NO 2”, for which the phenotype entry in data set [1] is listed as “bleaching was observed”. Turning to “dsPDS: NtPDS dsRNA, double stranded RNA version of SEQ ID NO 4”, the phenotype entry with NtPDS transcript was “bleaching phenotype was observed”.

B1: dsNtFtsH: NtFtsH protease dsRNA (SEQ ID NO 9:SEQ ID NO 10), double stranded version of SEQ ID NO. 3 (nucleic acid, listed as Nicotiana tabacum)
chain 1: CAAAUGGCAGUUGCACUUGGUGAAAGGGUUGCUGAGGAGGUUAUUUUUGGACAAGAUAACGUAACAACUGGGGCAUCUAACGAUUUCAUGCAAGUUUCACGAGUGGCAAGGCAGAUGGUUGAGAGAUUAGGGUUCAGCAAAAAGAUUGGACAAGUUGCCAUUGGAGGAGGUGGAGGAAAUCCUUUCCUAGGUCAACAGAUGUCAACCCAGAAAGACUACUCCAUGGCUACAGCCGAUGUGGUUGAUGCUGAAGUAAGGGAAUUGGUUGAAAGAGCAUAUGAAAGGGCAACAGAGAUUAUCACAACACACAUUGACAUCCUACACAAGCUUGCUCAGCUGUUGAUAGAGAAAGAAACUGUUGAUGGUGAAGAGUUCAUGAGCCUUUUCAUCGAUGG
chain 2: GUUUACCGUCAACGUGAACCACUUUCCCAACGACUCCUCCAAUAAAAACCUGUUCUAUUGCAUUGUUGACCCCGUAGAUUGCUAAAGUACGUUCAAAGUGCUCACCGUUCCGUCUACCAACUCUCUAAUCCCAAGUCGUUUUUCUAACCUGUUCAACGGUAACCUCCUCCACCUCCUUUAGGAAAGGAUCCAGUUGUCUACAGUUGGGUCUUUCUGAUGAGGUACCGAUGUCGGCUACACCAACUACGACUUCAUUCCCUUAACCAACUUUCUCGUAUACUUUCCCGUUGUCUCUAAUAGUGUUGUGUGUAACUGUAGGAUGUGUUCGAACGAGUCGACAACUAUCUCUUUCUUUGACAACUACCACUUCUCAAGUACUCGGAAAAGUAGCUACC
modifications: Sense strand of SEQIDNO3 (1)..(395); Complement of SEQIDNO9 (1)..(395)
For the molecule B1, the phenotype result with NtFtsH transcript was “bleaching phenotype was observed”.
